ChEMBL document CHEMBL4011586 (Eur J Med Chem, 2017)
The source made the active and inactive calls. The calls are words filed in the database; no cut-off is given here.

Tests used:
[1] = biological target: T1, Amine oxidase [flavin-containing] A (Homo sapiens, UniProt P21397); test: Inhibition of recombinant human MAO-A expressed in baculovirus infected BTI insect cells assessed as reduction in H2O2 production using p-tyramine as substrate pretreated for 30 mins followed by substrate addition after 30 mins by Amplex red reagent based assay
T1 sequence (P21397 whole entry): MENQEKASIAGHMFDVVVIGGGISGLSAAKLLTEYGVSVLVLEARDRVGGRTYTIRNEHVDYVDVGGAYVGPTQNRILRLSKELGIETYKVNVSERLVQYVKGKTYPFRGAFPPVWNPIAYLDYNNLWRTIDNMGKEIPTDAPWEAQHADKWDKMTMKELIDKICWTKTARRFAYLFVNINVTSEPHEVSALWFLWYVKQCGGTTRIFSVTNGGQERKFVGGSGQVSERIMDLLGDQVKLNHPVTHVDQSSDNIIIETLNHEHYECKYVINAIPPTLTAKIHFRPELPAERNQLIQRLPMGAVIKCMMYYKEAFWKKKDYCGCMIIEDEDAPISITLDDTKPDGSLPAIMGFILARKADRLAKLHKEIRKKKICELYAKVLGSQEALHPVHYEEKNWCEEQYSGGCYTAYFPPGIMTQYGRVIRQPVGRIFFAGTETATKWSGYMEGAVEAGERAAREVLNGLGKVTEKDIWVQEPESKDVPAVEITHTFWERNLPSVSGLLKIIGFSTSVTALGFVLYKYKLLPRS

[2] = biological target: T2, Amine oxidase [flavin-containing] B (Homo sapiens, UniProt P27338); test: Inhibition of recombinant human MAO-B expressed in baculovirus infected BTI insect cells assessed as reduction in H2O2 production using p-tyramine as substrate pretreated for 30 mins followed by substrate addition after 30 mins by Amplex red reagent based assay
T2 sequence (P27338 whole entry): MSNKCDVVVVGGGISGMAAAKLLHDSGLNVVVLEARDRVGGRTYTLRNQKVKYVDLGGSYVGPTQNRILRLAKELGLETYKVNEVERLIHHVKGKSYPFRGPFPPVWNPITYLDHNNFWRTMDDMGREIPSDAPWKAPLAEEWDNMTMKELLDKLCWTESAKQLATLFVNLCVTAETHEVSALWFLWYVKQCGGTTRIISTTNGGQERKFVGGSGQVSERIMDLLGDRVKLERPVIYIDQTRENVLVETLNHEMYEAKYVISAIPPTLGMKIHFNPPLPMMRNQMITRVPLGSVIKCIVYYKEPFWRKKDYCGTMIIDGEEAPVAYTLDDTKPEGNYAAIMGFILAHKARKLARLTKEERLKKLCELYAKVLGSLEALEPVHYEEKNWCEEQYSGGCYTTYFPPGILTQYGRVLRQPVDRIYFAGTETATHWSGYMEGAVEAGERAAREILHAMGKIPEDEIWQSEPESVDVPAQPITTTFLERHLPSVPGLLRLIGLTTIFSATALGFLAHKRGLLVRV

[3] = organism: Homo sapiens; test: Selectivity index, ratio of IC50 for recombinant human MAO-A to IC50 for recombinant human MAO-B
[4] = Cytotoxicity against human SH-SY5Y cells assessed as cell viability at 50 uM after 24 hrs by WST-1 assay relative to control; type: cell-based; settings: read-out: Activity
[5] = biological target: T2, Amine oxidase [flavin-containing] B; test: Reversible inhibition of recombinant human MAO-B expressed in baculovirus infected BTI insect cells assessed as reduction in H2O2 production using p-tyramine as substrate at 3 times IC50 pretreated up to 60 mins followed by substrate addition after 30 mins by Amplex red reagent based assay; settings: 0.5 h
[6] = test system: PC-12; test: Neuroprotective activity against H2O2-induced toxicity in rat PC12 cells at 50 to 100 uM pretreated followed by H2O2 challenge measured after 24 hrs; type: functional, cell-based
[7] = Cytotoxicity against rat PC-12 Adh cells assessed as cell viability at 50 uM after 24 hrs by WST-1 assay relative to control; type: cell-based; settings: read-out: Activity
[8] = test system: PC-12; test: Neuroprotective activity against rotenone-induced toxicity in rat PC12 cells at 50 to 100 uM pretreated followed by rotenone challenge measured after 24 hrs; type: functional, cell-based
[9] = Cytotoxicity against rat PC12 cells assessed as cell viability at 50 uM after 24 hrs by WST-1 assay relative to control; type: cell-based, PC-12; settings: read-out: Activity
[10] = biological target: T2, Amine oxidase [flavin-containing] B; test: (§1) Competitive inhibition of recombinant human MAO-B expressed in baculovirus infected BTI insect cells assessed as reduction in H2O2 production at 4 to 16 nM using varying levels of p-tyramine as substrate pretreated up to 60 mins followed by substrate addition measured after 30 mins by Line-weaver burk plot analysis; settings: 0.5 h
[11] = biological target: T2, Amine oxidase [flavin-containing] B; test: as §1, with “11” for “4”, “44” for “16”; settings: 0.5 h

| Structure (SMILES) | IC50 [1] | IC50 [2] | Ratio IC50 [3] | viability at 24 h, 50 µM [4] | inhibition (INH) [5] | Activity [6] | viability at 24 h, 50 µM [7] | Activity [8] | viability at 24 h, 50 µM [9] | inhibition (INH) [10] | inhibition (INH) [11] |
| --- | --- | --- | --- | --- | --- | --- | --- | --- | --- | --- | --- |
| CN1N=C(c2ccc(/N=C/c3cccc(Cl)c3)cc2)OCC1=O | > 100000 nM | 2030 nM | > 49 |  |  |  |  |  |  |  |  |
| O=C1COC(c2ccc(/N=C/c3cccc(F)c3)cc2)=NN1 | > 100000 nM | 1530 nM | > 65 |  |  |  |  |  |  |  |  |
| Cc1cccc(/N=N/c2ccc(C3=NNC(=O)CO3)cc2)c1 | > 100000 nM | 25 nM | > 4000 |  |  |  |  |  |  |  |  |
| O=C1COC(c2ccc(/N=N/c3ccccc3)cc2)=NN1 | > 100000 nM | 4 nM | > 25000 | > 90% | Active | inactive | > 90% | inactive | > 90% | Active |  |
| NC(=O)CN1N=C(c2ccc(NC(=O)c3cccc(Cl)c3)cc2)OCC1=O | > 100000 nM | 3690 nM | > 27 |  |  |  |  |  |  |  |  |
| O=C1COC(c2ccc(/C=C/c3ccc(Cl)cc3)cc2)=NN1 | > 100000 nM | 542 nM | > 185 |  |  |  |  |  |  |  |  |
| O=C1COC(c2ccc(/C=N/c3cccc(Cl)c3)cc2)=NN1 | > 100000 nM | 551 nM | > 182 |  |  |  |  |  |  |  |  |
| O=C1COC(c2ccc(NCc3cccc(Cl)c3)cc2)=NN1 | > 100000 nM | 2690 nM | > 37 |  |  |  |  |  |  |  |  |
| O=C1COC(c2ccc(/N=N/c3ccc(Cl)cc3)cc2)=NN1 | > 100000 nM | 392 nM | > 255 |  |  |  |  |  |  |  |  |
| O=C1COC(c2ccc(/N=C/c3ccc(Cl)cc3)cc2)=NN1 | > 100000 nM | 433 nM | > 231 |  |  |  |  |  |  |  |  |
| O=C1COC(c2ccc(/N=N/c3cccc(F)c3)cc2)=NN1 | > 100000 nM | 12 nM | > 8330 |  |  |  |  |  |  |  |  |
| O=C1COC(c2ccc(NC(=O)c3cccc(Cl)c3)cc2)=NN1 | > 100000 nM | 284 nM | > 357 |  |  |  |  |  |  |  |  |
| O=C1COC(c2ccc(/C=C/c3cccc(F)c3)cc2)=NN1 | > 100000 nM | 22 nM | > 4540 | > 90% | Active | inactive | > 90% | inactive | > 90% |  | Active |
| O=C1COC(c2ccc(/C=N/Nc3cccc(Cl)c3)cc2)=NN1 | > 10000 nM | 554 nM | > 18 |  |  |  |  |  |  |  |  |
| O=C1COC(c2ccc(/C=C/c3cccc(Cl)c3)cc2)=NN1 | > 100000 nM | 173 nM | > 578 |  |  |  |  |  |  |  |  |
| O=C1COC(c2ccc(/N=N/c3cccc(Cl)c3)cc2)=NN1 | > 100000 nM | 287 nM | > 348 |  |  |  |  |  |  |  |  |
| Cc1cccc(/C=N/c2ccc(C3=NNC(=O)CO3)cc2)c1 | > 100000 nM | 1270 nM | > 78 | > 90% | Active | inactive | > 90% | inactive | > 90% |  |  |
| O=C1COC(c2ccc(NS(=O)(=O)c3cccc(Cl)c3)cc2)=NN1 | > 100000 nM | > 10000 nM |  |  |  |  |  |  |  |  |  |
| O=C1COC(c2ccc(/C=C/c3ccccc3)cc2)=NN1 | > 100000 nM | 165 nM | > 606 |  |  |  |  |  |  |  |  |
| CCN1N=C(c2ccc(/C=C/c3cccc(Cl)c3)cc2)OCC1=O | > 100000 nM | > 10000 nM |  |  |  |  |  |  |  |  |  |
| O=C1COC(c2ccc(/N=C/c3ccccc3)cc2)=NN1 | > 100000 nM | > 10000 nM |  |  |  |  |  |  |  |  |  |
| O=C1COC(c2ccc(NC(=O)Nc3cccc(Cl)c3)cc2)=NN1 | > 100000 nM | 2890 nM | > 34 |  |  |  |  |  |  |  |  |
| Cc1cccc(/C=C/c2ccc(C3=NNC(=O)CO3)cc2)c1 | > 100000 nM | 338 nM | > 296 |  |  |  |  |  |  |  |  |
| N#CCCN1N=C(c2ccc(NC(=O)c3cccc(Cl)c3)cc2)OCC1=O | > 100000 nM | 4230 nM | > 24 |  |  |  |  |  |  |  |  |
| O=C1COC(c2ccc(/N=C/c3cccc(Cl)c3)cc2)=NN1 | > 100000 nM | 257 nM | > 385 | > 90% | Active | inactive | > 90% | inactive | > 90% |  |  |
| O=C1COC(c2ccc(C(=O)Nc3cccc(Cl)c3)cc2)=NN1 | > 100000 nM | 288 nM | > 344 |  |  |  |  |  |  |  |  |
